According to patent US20100204119A1, “4-AMINO-5-OXO-7,8-DIHYDROPYRIMIDO[5,4-F][1,4]OXAZEPIN-6(5H)-YL PHENYL DERIVATIVES” (Pfizer Inc, priority 2009, published 2010):

Molecular target: T1, Human full-length diacylglycerol:acylCoA acyltransferase 1 (DGAT-1) (Homo sapiens, UniProt O75907)
T1 sequence (O75907 1-488): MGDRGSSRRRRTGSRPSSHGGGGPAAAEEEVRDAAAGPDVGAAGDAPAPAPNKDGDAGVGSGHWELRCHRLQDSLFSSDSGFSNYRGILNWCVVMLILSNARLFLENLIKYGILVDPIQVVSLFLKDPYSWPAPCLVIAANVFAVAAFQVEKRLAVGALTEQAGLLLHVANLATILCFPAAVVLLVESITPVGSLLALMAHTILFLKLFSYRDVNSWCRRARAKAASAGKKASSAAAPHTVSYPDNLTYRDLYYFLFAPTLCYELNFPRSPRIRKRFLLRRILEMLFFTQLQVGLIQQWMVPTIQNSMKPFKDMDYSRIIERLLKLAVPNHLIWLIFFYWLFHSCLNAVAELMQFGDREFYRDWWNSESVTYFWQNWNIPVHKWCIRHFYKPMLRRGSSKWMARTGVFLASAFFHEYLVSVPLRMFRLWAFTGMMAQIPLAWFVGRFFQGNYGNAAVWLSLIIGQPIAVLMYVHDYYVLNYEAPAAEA
Test: In vitro assay for inhibition of DGAT-1 activity (DGAT 1 Reduced Microsome Multidose Assay)
Conditions: Trial 1 Human IC50, Trial 1: as Trial 4 except microsomes at 25 μg/mL instead of 5 μg/mL; average where n > 1
Procedure: Human full-length diacylglycerol:acylCoA acyltransferase 1 (DGAT-1) was expressed in Sf9 insect cells which are then lysed and a crude membrane fraction (105,000×g pellet) was prepared.
Inhibitors in DMSO were pre-incubated with membranes before initiating the DGAT-1 reaction by the addition of decanoylCoA. […] The inhibitors were present at a range of eight concentrations to generate an apparent IC50 for each compound. […] Specifically, the eight concentrations used were 3 μM, 1 μM, 300 nM, 100 nM, 30 nM, 10 nM, 3 nM and 1 nM.
The reactions were allowed to proceed for 1.5 hours at room temperature and then terminated by the addition of 20 μl of EDTA (40 mM). Reaction mixture is then mixed by trituration with 30 μl of Microscint™-E (Perkin Elmer). […] Four separate trials were conducted. The method of analysis of Trial 1 was the same as Trial 4 (described above) except microsomes were utilized at 25 μg/mL instead of 5 μg/mL. The method of analysis of Trial 2 was the same as Trial 4 (described above) except eleven (11) concentrations of inhibitor were employed instead of eight (8). The method of analysis of Trial 3 was the same as Trial 2 except the compounds were serially diluted in a different laboratory.
Where this DGAT-1 inhibition assay was performed on a compound more than once, an average is provided for that compound.

Compound	IC50
CCN(C(=O)C[C@H]1CC[C@H](c2ccc(N3CCOc4ncnc(N)c4C3=O)cc2)CC1)[C@H](C)CO [Example 6Z]	89.6 nM
CN(C)C(=O)CCN(C)C(=O)C[C@H]1CC[C@H](c2ccc(N3CCOc4ncnc(N)c4C3=O)cc2)CC1 [Example 6AC]	178 nM
COC[C@H]1CCN(C(=O)C[C@H]2CC[C@H](c3ccc(N4CCOc5ncnc(N)c5C4=O)cc3)CC2)C1 [Example 6F]	84.9 nM
CC1C(=O)NCCN1C(=O)C[C@H]1CC[C@H](c2ccc(N3CCOc4ncnc(N)c4C3=O)cc2)CC1 (stereo partly drawn) [Example 6BB]	147 nM
CC1(CO)CCCN(C(=O)C[C@H]2CC[C@H](c3ccc(N4CCOc5ncnc(N)c5C4=O)cc3)CC2)C1 (stereo partly drawn) [Example 6AN]	71.3 nM
COCCN(C)C(=O)C[C@H]1CC[C@H](c2ccc(N3CCOc4ncnc(N)c4C3=O)cc2)CC1 [Example 6J]	51 nM
CC1(O)CCN(C(=O)C[C@H]2CC[C@H](c3ccc(N4CCOc5ncnc(N)c5C4=O)cc3)CC2)C1 (stereo partly drawn) [Example 6AR]	85.3 nM
CCC(C)CN(CCO)C(=O)C[C@H]1CC[C@H](c2ccc(N3CCOc4ncnc(N)c4C3=O)cc2)CC1 (stereo partly drawn) [Example 6AH]	67 nM
CO[C@H]1CCN(C(=O)C[C@H]2CC[C@H](c3ccc(N4CCOc5ncnc(N)c5C4=O)cc3)CC2)C1 [Example 6E]	72.1 nM
CC(=O)N[C@@H]1CCN(C(=O)C[C@H]2CC[C@H](c3ccc(N4CCOc5ncnc(N)c5C4=O)cc3)CC2)C1 [Example 6S]	192 nM
CC1(C)C(=O)NCCN1C(=O)C[C@H]1CC[C@H](c2ccc(N3CCOc4ncnc(N)c4C3=O)cc2)CC1 [Example 6AE]	75.5 nM
CC(F)(F)CN(CCO)C(=O)C[C@H]1CC[C@H](c2ccc(N3CCOc4ncnc(N)c4C3=O)cc2)CC1 [Example 6AD]	42.1 nM
COCC1CCN(C(=O)C[C@H]2CC[C@H](c3ccc(N4CCOc5ncnc(N)c5C4=O)cc3)CC2)CC1 [Example 6I]	57.8 nM
CN(C(=O)C[C@H]1CC[C@H](c2ccc(N3CCOc4ncnc(N)c4C3=O)cc2)CC1)[C@H]1CCCC[C@@H]1O [Example 6AG]	52.8 nM
CCOC1CCN(C(=O)C[C@H]2CC[C@H](c3ccc(N4CCOc5ncnc(N)c5C4=O)cc3)CC2)CC1 [Example 6AB]	54.7 nM
CC(=O)N1CCN(C(=O)C[C@H]2CC[C@H](c3ccc(N4CCOc5ncnc(N)c5C4=O)cc3)CC2)CC1 [Example 6Y]	167 nM
CCCCCN(CCO)C(=O)C[C@H]1CC[C@H](c2ccc(N3CCOc4ncnc(N)c4C3=O)cc2)CC1 [Example 6V]	30.7 nM
CC1CCCN1C(=O)C[C@H]1CC[C@H](c2ccc(N3CCOc4ncnc(N)c4C3=O)cc2)CC1 (stereo partly drawn) [Example 6AI]	80.4 nM
Nc1ncnc2c1C(=O)N(c1ccc([C@H]3CC[C@H](CC(=O)N4CCCC4CO)CC3)cc1)CCO2 (stereo partly drawn) [Example 6X]	100 nM
CCN(C(=O)C[C@H]1CC[C@H](c2ccc(N3CCOc4ncnc(N)c4C3=O)cc2)CC1)C(C)(C)CO [Example 6U]	129 nM
C[C@@H]1COCCN1C(=O)C[C@H]1CC[C@H](c2ccc(N3CCOc4ncnc(N)c4C3=O)cc2)CC1 [Example 6BD]	47.2 nM
Cc1nnc2n1CCN(C(=O)C[C@H]1CC[C@H](c3ccc(N4CCOc5ncnc(N)c5C4=O)cc3)CC1)C2 [Example 6Q]	240 nM
CCN(CCCCO)C(=O)C[C@H]1CC[C@H](c2ccc(N3CCOc4ncnc(N)c4C3=O)cc2)CC1 [Example 6N]	37.5 nM
CC(C)(C(N)=O)c1ccc(N2CCOc3ncnc(N)c3C2=O)cc1 [Example 1D, 2-[4-(4-amino-5-oxo-7,8-dihydropyrimido[5,4-f][1,4]oxazepin-6(5H)-yl)phenyl]-2-methylpropanamide]	2750 nM
CC(c1cccnc1)N(C)C(=O)C[C@H]1CC[C@H](c2ccc(N3CCOc4ncnc(N)c4C3=O)cc2)CC1 (stereo partly drawn) [Example 6AQ]	87.5 nM

Same assay, conditions: Trial 2 Human IC50, Trial 2: as Trial 4 except eleven concentrations of inhibitor instead of eight; average where n > 1

Compound	IC50
Cc1ncoc1C(=O)N1CCC(c2ccc(N3CCOc4ncnc(N)c4C3=O)cc2)CC1 [Example 7K]	130 nM
Nc1ncnc2c1C(=O)N(c1ccc(C3CCN(C(=O)Cc4ncccn4)CC3)cc1)CCO2 [Example 7N]	119 nM
Nc1ncnc2c1C(=O)N(c1ccc(C3CCN(C(=O)CC4CCOC4)CC3)cc1)CCO2 (stereo not drawn) [Example 7M]	114 nM
CC(C)c1ccc(N2CCOc3ncnc(N)c3C2=O)cc1 [Example 1H]	17.1 nM
Nc1ncnc2c1C(=O)N(c1ccc(C3CCN(C(=O)CC4CCCC4)CC3)cc1)CCO2 [Example 7AE]	41.2 nM
Nc1ncnc2c1C(=O)N(c1ccc(C3CCN(C(=O)Cn4cccn4)CC3)cc1)CCO2 [Example 7AC]	73.1 nM
CC(C)[C@H](O)C(=O)N1CCC(c2ccc(N3CCOc4ncnc(N)c4C3=O)cc2)CC1 [Example 7U]	205 nM

Same assay, conditions: Trial 3 Human IC50, Trial 3: as Trial 2 except compounds serially diluted in a different laboratory; average where n > 1

Compound	IC50
Cc1ncoc1C(=O)N1CCC(c2ccc(N3CCOc4ncnc(N)c4C3=O)cc2)CC1 [Example 7K]	258 nM
Nc1ncnc2c1C(=O)N(c1ccc(C3CCN(C(=O)Cc4ncccn4)CC3)cc1)CCO2 [Example 7N]	234 nM
Nc1ncnc2c1C(=O)N(c1ccc(C3CCN(C(=O)CC4CCOC4)CC3)cc1)CCO2 (stereo not drawn) [Example 7M]	180 nM
CC(C)c1ccc(N2CCOc3ncnc(N)c3C2=O)cc1 [Example 1H]	26.3 nM
Nc1ncnc2c1C(=O)N(c1ccc(C3CCN(C(=O)CC4CCCC4)CC3)cc1)CCO2 [Example 7AE]	92.3 nM
Nc1ncnc2c1C(=O)N(c1ccc(C3CCN(C(=O)Cn4cccn4)CC3)cc1)CCO2 [Example 7AC]	113 nM
CC(C)[C@H](O)C(=O)N1CCC(c2ccc(N3CCOc4ncnc(N)c4C3=O)cc2)CC1 [Example 7U]	297 nM

Same assay, conditions: Trial 4 Human IC50, Trial 4: eight concentrations of inhibitor, microsomes 5 μg/mL; average where n > 1

IC50	Compound
8.1 nM	Cc1noc(C[C@H]2CC[C@H](c3ccc(N4C[C@@H](C)Oc5ncnc(N)c5C4=O)cc3)CC2)n1 [Example 2C]
1670 nM	C[C@@H]1CN(c2ccc(C(=O)N(C)C)cc2)C(=O)c2c(N)ncnc2O1 [Example 6BG]

More lines, now with the values behind:

Compound	IC50
C[C@@H]1CN(c2ccc(C(O)C(F)(F)F)cc2)C(=O)c2c(N)ncnc2O1 (stereo partly drawn) [Example 1R]	37.7 nM
COCC(C)(C)c1ccc(N2C[C@@H](C)Oc3ncnc(N)c3C2=O)cc1 [Example 1AA]	42.7 nM
COC(=O)c1ccc(N2C[C@@H](C)Oc3ncnc(N)c3C2=O)cc1 [Example 1J, Methyl 4-[(8R)-4-amino-8-methyl-5-oxo-7,8-dihydropyrimido[5,4-f][1,4]oxazepin-6(5H)-yl]benzoate]	161 nM
CC(O)c1ccc(N2C[C@@H](C)Oc3ncnc(N)c3C2=O)cc1 (stereo partly drawn) [Example 1W]	146 nM
COc1nc(N)c2c(n1)O[C@H](C)CN(c1ccc(C(C)(C)C)cc1)C2=O [Example 1N]	44.5 nM
CCC(O)(CC)c1ccc(N2C[C@@H](C)Oc3ncnc(N)c3C2=O)cc1 [Example 1AP, (8R)-4-Amino-6-[4-(1-ethyl-1-hydroxypropyl)phenyl]-8-methyl-7,8-dihydropyrimido[5,4-f][1,4]oxazepin-5(6H)-one]	29.4 nM
CC(C)Cc1ccc(N2C[C@@H](C)Oc3ncnc(N)c3C2=O)cc1 [Example 1Y, (8R)-4-amino-6-(4-isobutylphenyl)-8-methyl-7,8-dihydropyrimido[5,4-f]-[1,4]oxazepin-5(6H)-one]	6.78 nM
Cc1ccc(N2C[C@@H](C)Oc3ncnc(N)c3C2=O)cc1 [Example 1P, (8R)-4-amino-8-methyl-6-(4-methylphenyl)-7,8-dihydropyrimido[5,4-f]-[1,4]oxazepin-5(6H)-one]	52.8 nM
C[C@@H]1CN(c2ccc(C(C)(C)CO)cc2)C(=O)c2c(N)ncnc2O1 [Example 1AQ]	31 nM
C[C@@H]1CN(c2ccc(C3(C(N)=O)CCCCC3)cc2)C(=O)c2c(N)ncnc2O1 [Example 1AE, 1-{4-[(8R)-4-amino-8-methyl-5-oxo-7,8-dihydropyrimido[5,4-f][1,4]oxazepin-6(5H)-yl]phenyl}cyclohexanecarboxamide]	82.4 nM
COC(=O)C(C)(C)c1ccc(N2C[C@@H](C)Oc3ncnc(N)c3C2=O)cc1 [Example 1X]	32.5 nM
C[C@@H]1CN(c2ccc(C(C)(C)C(N)=O)cc2)C(=O)c2c(N)ncnc2O1 [Example 1AR]	24 nM
COC(C)(C)c1ccc(N2C[C@@H](C)Oc3ncnc(N)c3C2=O)cc1 [Example 1AL, (8R)-4-amino-6-[4-(1-methoxy-1-methylethyl)phenyl]-8-methyl-7,8-dihydropyrimido[5,4-f][1,4]oxazepin-5(6H)-one]	34.6 nM
C[C@@H]1CN(c2ccc(CC(N)=O)cc2)C(=O)c2c(N)ncnc2O1 [Example 1AM, (8R)-2-(4-(4-amino-8-methyl-5-oxo-7,8-dihydropyrimido[5,4-f][1,4]oxazepin-6(5H)-yl)phenyl)acetamide]	313 nM
C[C@@H]1CN(c2ccc(C3CC3)cc2)C(=O)c2c(N)ncnc2O1 [Example 1U]	19.9 nM
C[C@@H]1CN(c2ccc(C(C)(C)C(F)(F)F)cc2)C(=O)c2c(N)ncnc2O1 [Example 1Z, (8R)-4-amino-8-methyl-6-[4-(2,2,2-trifluoro-1,1-dimethylethyl)phenyl]-7,8-dihydropyrimido[5,4-f][1,4]oxazepin-5(6H)-one]	14.3 nM
CCC(CC)(OC)c1ccc(N2C[C@@H](C)Oc3ncnc(N)c3C2=O)cc1 [Example 1AI, (8R)-4-amino-6-[4-(1-ethyl-1-methoxypropyl)phenyl]-8-methyl-7,8-dihydropyrimido[5,4-f][1,4]oxazepin-5(6H)-one]	15.5 nM
C[C@@H]1CN(c2ccc(C(C)(C)F)cc2)C(=O)c2c(N)ncnc2O1 [Example 1L, (8R)-4-amino-6-[4-(1-fluoro-1-methylethyl)phenyl]-8-methyl-7,8-dihydropyrimido[5,4-f][1,4]oxazepin-5(6H)-one]	46.1 nM
C[C@@H]1CN(c2ccc(Cl)c(Cl)c2)C(=O)c2c(N)ncnc2O1 [Example 1AB, (8R)-4-amino-6-(3,4-dichlorophenyl)-8-methyl-7,8-dihydropyrimido[5,4-F][1,4]oxazepin-5(6H)-one]	24.8 nM
